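Each compound was tested at five concentrations against cells in 96-well plates for 48 hours. GI50 = concentration required for 50% inhibition of growth.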 Active and inactive are the calls of the source. Rule as the data show it: active = GI50 up to about 1.1 µM and inactive = higher.

Some test systems named below: 786-0; A498; A549; ACHN; COLO 205; DU-145; HCC 2998; HCT-15; HL-60; HOP-62; HT-29; IGROV-1; MDA-MB-231; NCI-H226; OVCAR-4; SK-MEL-5; SK-OV-3; SNB-75; T47D; TK-10.
Common to all, as to experiment: inhibition of tumour cell growth, NCI panel, 48 h

With `OCCCSCCO`, the GI50 in the assay on 786-0, in the assay with A498, in the assay with A549, in the assay with ACHN, in the assay with COLO 205 and in the assay on DU-145 was > 100 µM (inactive) throughout. The GI50 is > 100 µM (inactive) in the assay with HCC 2998; over 100 µM in the assay with HCT-15; > 100 µM (inactive) in the assay with HL-60; > 100 µM (inactive) with HOP-62; > 100 µM (inactive) in the assay on HT-29; > 100 µM (inactive) in the assay on IGROV-1. Also, the GI50 in the assay on MDA-MB-231, in the assay with NCI-H226, with OVCAR-4, in the assay with SK-MEL-5, in the assay on SK-OV-3 and in the assay on SNB-75 was > 100 µM (inactive) in each case. The GI50 in the assay on T47D and with TK-10 was > 100 µM (inactive) throughout.
Turning to `CO[C@H]1O[C@@H]2CO[C@@H](c3ccccc3)O[C@H]2[C@@H]2CC=CCC[C@]12O`, the GI50 in the assay on 786-0 is 61.2 µM (inactive); in the assay on A498 it was 32.1 µM (inactive); in the assay on A549, 59.8 µM (inactive); in the assay on ACHN, 76.4 µM (inactive); in the assay with COLO 205 it was 48.5 µM (inactive); with DU-145, > 100 µM (inactive). The GI50 was 18.5 µM (inactive) with HCC 2998; 39.6 µM in the assay on HCT-15; 24.8 µM (inactive) in the assay with HL-60; > 100 µM (inactive) with HOP-62; 40 µM (inactive) in the assay with HT-29; 59.6 µM (inactive) in the assay on IGROV-1. The GI50 is > 100 µM (inactive) in the assay on MDA-MB-231; > 100 µM (inactive) in the assay with NCI-H226; 57.3 µM (inactive) with OVCAR-4; 67.1 µM (inactive) in the assay on SK-MEL-5; > 100 µM (inactive) in the assay with SK-OV-3; > 100 µM (inactive) in the assay on SNB-75. For the same compound, the GI50 was 94 µM (inactive) with T47D and 93.5 µM (inactive) in the assay on TK-10.
On to `COC(c1ccsc1)C(C#N)(C#N)/N=C/c1ccsc1` (stereo not given), for which the GI50 in the assay with 786-0 is 17.3 µM (inactive); in the assay with A498, 14.9 µM (inactive); with A549 it was 30.5 µM (inactive); with ACHN it was 18.7 µM (inactive); with COLO 205 it was 16.5 µM (inactive); with DU-145, 15.2 µM (inactive). The GI50 was 19.8 µM (inactive) with HCC 2998; 13 µM in the assay with HCT-15; 3.18 µM (inactive) with HL-60; 17.4 µM (inactive) in the assay on HOP-62; 12.5 µM (inactive) with HT-29; 17.1 µM (inactive) in the assay on IGROV-1. Also, the GI50 was 7.4 µM (inactive) with MDA-MB-231; 21.6 µM (inactive) in the assay with NCI-H226; 20.9 µM (inactive) in the assay with OVCAR-4; 13.6 µM (inactive) in the assay on SK-MEL-5; 21.1 µM (inactive) in the assay on SK-OV-3; 15.1 µM (inactive) in the assay on SNB-75. The figures for the GI50 in the assay on T47D and in the assay on TK-10 were 13.9 µM (inactive) and 17.7 µM (inactive), respectively.
With `CC1CC(C)C(C#N)N(C)c2ccccc21` (stereo not given), the GI50 in the assay on 786-0, with A498, with A549, in the assay with ACHN, with COLO 205 and in the assay on DU-145 was > 100 µM (inactive) each time. Besides, the GI50 in the assay with HCC 2998 is > 100 µM (inactive); with HCT-15, over 100 µM; with HL-60, 26.7 µM (inactive); in the assay with HOP-62, > 100 µM (inactive); with HT-29 it was 78.3 µM (inactive); with IGROV-1, > 100 µM (inactive). In addition, the GI50 in the assay on MDA-MB-231 is > 100 µM (inactive); with NCI-H226, > 100 µM (inactive); in the assay with OVCAR-4, > 100 µM (inactive); in the assay with SK-MEL-5, 37.7 µM (inactive); in the assay on SK-OV-3 it was > 100 µM (inactive); in the assay on SNB-75, > 100 µM (inactive). The GI50 in the assay on T47D and with TK-10 was > 100 µM (inactive) each time.
Consider `COC1=Nc2ccccc2S(=O)(=O)C=C1`, for which the GI50 in the assay on 786-0 is 3.29 µM (inactive); in the assay on A498, 16.8 µM (inactive); in the assay with A549 it was 18.2 µM (inactive); in the assay with ACHN it was 3.07 µM (inactive); with COLO 205 it was 1.79 µM (inactive); in the assay on DU-145 it was 16.8 µM (inactive). Also, the GI50 is 21.4 µM (inactive) with HCC 2998; 3.42 µM in the assay with HCT-15; 0.195 µM (active) in the assay with HL-60; 43.3 µM (inactive) in the assay on HOP-62; 9.89 µM (inactive) in the assay on HT-29; 13.7 µM (inactive) with IGROV-1. In addition, the GI50 in the assay on MDA-MB-231 was 13.2 µM (inactive); in the assay on NCI-H226, > 87.3 µM (inactive); in the assay with OVCAR-4, 10.1 µM (inactive); with SK-MEL-5 it was 11.4 µM (inactive); with SK-OV-3 it was 45.7 µM (inactive); with SNB-75, 2.31 µM (inactive). For the same compound, the GI50 is 3.66 µM (inactive) with T47D and 2.75 µM (inactive) with TK-10.
`N=C(N)N/N=C/c1c(-c2ccc([N+](=O)[O-])cc2)nc2n1CCS2`: the GI50 in the assay on 786-0 is 6.67 µM (inactive); in the assay on A498 it was 20.4 µM (inactive); with A549 it was 17 µM (inactive); in the assay on ACHN, 16.5 µM (inactive); in the assay on COLO 205 it was 2.76 µM (inactive); in the assay on DU-145, 14.6 µM (inactive). In addition, the GI50 in the assay on HCC 2998 is 6.32 µM (inactive); in the assay on HCT-15, 18.5 µM; in the assay on HL-60, 8.36 µM (inactive); in the assay on HOP-62, 20.5 µM (inactive); with HT-29, 14.5 µM (inactive); in the assay on IGROV-1, 17.4 µM (inactive). The GI50 is 6.18 µM (inactive) in the assay with MDA-MB-231; 20.3 µM (inactive) with NCI-H226; 7.85 µM (inactive) in the assay on OVCAR-4; 16.1 µM (inactive) with SK-MEL-5; 20.3 µM (inactive) in the assay with SK-OV-3; 6.04 µM (inactive) with SNB-75. The GI50 with T47D is 5.13 µM (inactive); with TK-10, 17.4 µM (inactive).
With `O=C(O)c1ccccc1CC1Cc2cc3c(cc2C1)CCC3`, the GI50 was > 100 µM (inactive) in the assay with 786-0; > 100 µM (inactive) in the assay with A498; 95.1 µM (inactive) in the assay on A549; > 100 µM (inactive) in the assay with ACHN; > 100 µM (inactive) with COLO 205; > 100 µM (inactive) with DU-145. In addition, the GI50 in the assay on HCC 2998 was > 100 µM (inactive); in the assay with HCT-15, 99.3 µM; in the assay on HL-60, > 100 µM (inactive); with HOP-62, > 100 µM (inactive); in the assay on HT-29, > 100 µM (inactive); in the assay with IGROV-1, > 100 µM (inactive). Further, the GI50 in the assay with MDA-MB-231 was > 100 µM (inactive); in the assay on NCI-H226, > 100 µM (inactive); with OVCAR-4, 80.5 µM (inactive); in the assay on SK-MEL-5 it was > 100 µM (inactive); in the assay with SK-OV-3 it was > 100 µM (inactive); in the assay on SNB-75, > 100 µM (inactive). Further, the GI50 with T47D was 33 µM (inactive); in the assay on TK-10 it was > 100 µM (inactive).
In the case of `O=C(O)[C@H]1[C@@H](C2CCCCC2)O[C@@H](C2CCCCC2)O[C@H]1C(F)(F)F`, the GI50 was 17.8 µM (inactive) with 786-0; 19 µM (inactive) with A498; 20.9 µM (inactive) in the assay on A549; 18.7 µM (inactive) in the assay with ACHN; 20.4 µM (inactive) in the assay with COLO 205; 41.8 µM (inactive) in the assay with DU-145. In addition, the GI50 in the assay on HCC 2998 was 20 µM (inactive); in the assay with HCT-15 it was 30.1 µM; in the assay on HL-60, 26.9 µM (inactive); in the assay on HOP-62 it was 24 µM (inactive); in the assay on HT-29, 22.6 µM (inactive); in the assay on IGROV-1, 16.6 µM (inactive). The GI50 with MDA-MB-231 is 18.2 µM (inactive); with NCI-H226, 21.1 µM (inactive); in the assay on OVCAR-4 it was 36.2 µM (inactive); in the assay with SK-MEL-5, 20.7 µM (inactive); in the assay with SK-OV-3, 38.9 µM (inactive); with SNB-75, 18.7 µM (inactive). Moreover, the GI50 in the assay with T47D was 30.5 µM (inactive); in the assay on TK-10, 60.1 µM (inactive).
For `COc1cc2ncnc(Nc3cccc(Cl)c3)c2cc1OC` [TYRPHOSTIN AG-1478], the GI50 in the assay on 786-0 is 6.28 µM (inactive); in the assay with A498, 2.54 µM (inactive); in the assay with A549, 10.6 µM (inactive); in the assay with ACHN, 0.0446 µM (active); with COLO 205 it was 17.9 µM (inactive); with DU-145 it was 1.89 µM (inactive). Also, the GI50 with HCC 2998 was 13.6 µM (inactive); with HCT-15, 9.25 µM; in the assay on HL-60 it was 21.8 µM (inactive); in the assay on HOP-62, 20.8 µM (inactive); in the assay with HT-29 it was 9.38 µM (inactive); in the assay with IGROV-1, 0.0736 µM (active). Further, the GI50 in the assay with MDA-MB-231 was 14.2 µM (inactive); in the assay on NCI-H226, 2.4 µM (inactive); in the assay with OVCAR-4 it was 18.1 µM (inactive); in the assay on SK-MEL-5, 6.1 µM (inactive); with SK-OV-3, 0.472 µM (active); with SNB-75 it was 2.57 µM (inactive). For the same compound, the values for the GI50 in the assay with T47D and with TK-10 were 9.55 µM (inactive) and 0.173 µM (active), respectively.

The record behind these values is ChEMBL document CHEMBL1201862, “PubChem BioAssay data set” (2004).
